Data published in patent US7354711B2, “Methods for inhibiting immunostimulatory DNA associated responses” (University of Iowa Research Foundation, priority 1997, dated 2008).

Legend:
WEHI 231 cells [1] = assay: CpG-ODN-induced IL-6 synthesis (ELISA); type: cell-based, mouse; conditions: 30 nM
Protocol: The assay of IL6 was generally carried out as follows. […] After 24 hours, the IL-6 content of the supernatant was assayed by enzyme-linked immunoassay using two monoclonal antibodies in a sandwich technique as described by the manufacturer, using standards supplied (PharMingen, San Diego Calif.).

human mononuclear cells = assay: ODN 1760-induced [3H] thymidine incorporation in human mononuclear cells; type: cell-based; conditions: unfractionated human peripheral blood cells, four days
Protocol: [^3H] thymidine incorporation (18 hour pulse) was then measured. […] Thymidine incorporation for untreated samples was less than 0.05%. Samples from three donors were averaged, and error bars indicate 1 standard deviation.

[2] = system: multi-drug resistance pump; assay: Potency with inhibition of the multi-drug resistance pump; type: cell-based
7TD1 cells = assay: Inhibition of 7TD1 cell growth; type: cell-based, mouse
Protocol: One particularly useful cell line for the assay of immunostimulatory DNA action is the mouse-mouse hybridoma plasma cell line 7TD1(ATTC #CRL 1851), which requires exoqenous IL-6 for growth, and has been used to characterize and assay IL-6 (Papadopolous et al., 1995. J. Clin. Lab. Anal. 9:234-7; Krakauer, 1993. J. Immunoassay 14:267-77).
The 7TD1 cells were grown in RPMI 1640 supplemented with 10% fetal bovine serum (heat inactivated at 65° C., 1 hour), 0.3 grams/Liter L-glutamine, 50 milligrams/Liter gentamycin, 0.05 mM 2-mercaptoethanol, and 10 units per milliliter murine IL-6 in a 37° C. humid atmosphere with 5% CO2. Viable 7TD1 cells were counted in a hemocytometer chamber in duplicate after dilution with 0.4% trypan blue.
The 7TD1 cells were incubated for five days and were washed twice with medium to remove IL-6, and resuspended at 2×10^4 per milliliter in medium. Cell counts were performed and the percent inhibition of growth was computed. The term “anti” refers to 40 nanograms/milliliter neutralizing antibody to IL-6.

WEHI 231 cells [3] = assay: Inhibition of CpG-ODN 1760 protection against α-sIgM-induced inhibition of [3H] thymidine uptake; type: cell-based, mouse; conditions: for Inhibition of the CpG-ODN effect (FIG. 1): at nanomolar concentrations, 10 μg/mL α-sIgM, 6 μg/mL ODN 1760; for vs. Chloroquine, fold / Activity,-log10 (concentration (M) for half maximal inhibition of CpG-ODN effect on [3H] thymidine uptake in the presence of α-sIgM): Table 3, 9-aminoacridines; for Activity,-log10 (concentration (M) for half maximal inhibition of CpG-ODN effect on [3H] thymidine uptake in the presence of α-sIgM) / Activity: -log10 of the concentration (M) required for half maximal inhibition of CpG-ODN effect on [3H] thymidine uptake in the presence of α-sIgM: WEHI 231 cells; for Fold: activity expressed as a fraction of activity of chloroquine / Activity: -log10 of the concentration (M) required for half maximal inhibition of CpG-ODN effect on [3H] thymidine uptake in the presence of α-sIgM: Table 2, 4-aminoquinolines
Protocol: The assay of [^3H] Thymidine incorporation was carried out as follows. WEHI 231 cells (200 μL at 2×10^5/milliliter, in duplicate or triplicate) were incubated in a 96-well plate (Costar, Cambridge Mass.). Additions were made as indicated. After incubating for 16 hours, 0.5 μCi [methyl-^3H] thymidine (2 Ci/millimole, DuPont NEN, Boston Mass.) was added to each well, and the cells were incubated for another 4 hours. Cellular DNA was then captured onto glass fiber filters (Whatman 934AH) using a cell harvester (Brandel, Gaithersberg Md.). The filters were dried, placed into plastic scintillation vials with 10 milliliters of scintillation cocktail (EconoSafe, Research Products International, Mount Prospect Ill.), and counted in a liquid scintillation counter (Beckman LS-3133 T). The ^3H recovered on the filter was expressed as a fraction of the ^3H added.
Referring to experiments summarized in FIG. 1, WEHI 231 cells (ca. 2×10^5 per milliliter) were incubated for 16 hours at 37° C. with 10 μgrams/milliliter α-sIgM, 6 μgrams/milliliter ODN 1760, and the indicated concentration of the compound. After 16 hours, 0.5 μCi [^3H] thymidine was added. After 4 more hours incubation, the cellular DNA was harvested onto glass fiber filters. The dry filters were counted in a liquid scintillation counter.
Each experimental point was the mean of at least duplicate measurements.
Referring to the experiments summarized in FIG. 3, 10 μgrams/milliliter α-sIgM and the indicated concentrations of ODN 1760 and quinacrine were added simultaneously to WEHI 231 cells. Thymidine incorporation was estimated at 16 hours as described for Example 1.
Referring to the experiments summarized in FIG. 4, WEHI 231 cells were incubated with α-sIgM and ODN 1760. At times thereafter 0.1 μM quinacrine was added (data shown in the left three bars). Cells were incubated with 10 μgrams/milliliter (α-sIgM and ODN 1760 (6 μgrams/milliliter, phosphorothioate or a phosphodiester ODN with the same sequence as 1760 (PD ODN) (30 μM at time 0 hours and 8 hours; data represented in right six bars in FIG. 4). [^3H] thymidine incorporation was estimated at 16 hours.
The symbol — indicates no change. Me and Et indicate —CH3 and —CH2CH3 respectively. Aromatic substituents are in the para position except as indicated. The activity is —log10 of the concentration (M) required for half maximal inhibition of CpG-ODN effect on [^3H] thymidine uptake in the presence of α-sIgM.

[4] = system: human peripheral blood mononuclear cells (PBMC); assay: ODN 1760-induced IL-6 production in human peripheral blood mononuclear cells; type: cell-based; conditions: 24 hours
Protocol: Referring to the experiments summarized in FIG. 9, human peripheral blood mononuclear cells (PBMC) from three donors were incubated with or without ODN 1760 and the indicated concentration of test compound. After 24 hours, the concentration of IL-6 was determined in the supernatant. The figure indicates the percentage of IL-6 in reference to ODN-treated cells. The IL-6 amounts for control sample per donor were as follows: donor 1, 203 picograms/milliliter; donor 2, 71.5 picograms/milliliter; donor 3, 465 picograms/milliliter. IL-6 measured from untreated cells was 0-21 picograms/milliliter. Results from the three donors were averaged, and error bars indicate 1 standard deviation.

[5] = 6 μg/mL ODN 1760 + 1 μg chloroquine (so in the source)
[6] = 6 μg/mL ODN 1760 + 3μ chloroquine (so in the source)

CCN(CC)CCCC(C)Nc1ccnc2cc(Cl)ccc12 (stereo not shown) [chloroquine]
Reversal of ODN 1760 effect on IL-6 elaboration (WEHI 231 cells [1]): completely reversed
Effect on ODN 1760-induced thymidine incorporation (FIG. 8) (human mononuclear cells): inhibited
Change of potency on inhibition of the multi-drug resistance pump [2]: magnified
7TD1 cells/μL (7TD1 cells; [5]): 7 cells/μL
% Growth Inhibition (7TD1 cells; [5]): 98.1%
7TD1 cells/μL (7TD1 cells; [6]): 10 cells/μL
% Growth Inhibition (7TD1 cells; [6]): 97.5%
7TD1 cells/μL (7TD1 cells; 10 μg/mL IL-6 + 1 μM compound): 610 cells/μL
% Growth Inhibition (7TD1 cells; 10 μg/mL IL-6 + 1 μM compound): 31.2%
% Growth Inhibition (7TD1 cells; 10 μg/mL IL-6 + 3 μM compound): 38.3%
Effect on IL-6-induced growth (7TD1 cells; 7TD1 cells, IL-6): little effect
Effect on growth stimulation by CpG-ODN (7TD1 cells; 7TD1 cells, ODN 1760): blocked
Inhibition of the CpG-ODN effect (FIG. 1) (WEHI 231 cells [3]): completely inhibited
Effect on ODN 1760-induced IL-6 production (FIG. 9) [4]: inhibited

CCN(CC)CCCC(C)Nc1c2ccc(Cl)cc2nc2cc(OC)c(OC)cc12 (stereo not shown) [compound 26]
vs. Chloroquine, fold (WEHI 231 cells [3]): 10.72 fold
Activity,-log10 (concentration (M) for half maximal inhibition of CpG-ODN effect on [3H] thymidine uptake in the presence of α-sIgM) (WEHI 231 cells [3]): 7.99

CCN(CC)Cc1cc(Nc2ccnc3cc(Cl)ccc23)ccc1O [amodiaquine, reference compound]
Inhibition of the CpG-ODN effect (FIG. 1) (WEHI 231 cells [3]): completely inhibited

CCN(CC)CCCC(C)Nc1c(C)cnc2cccc(C)c12 (stereo not shown) [compound 40]
Fold: activity expressed as a fraction of activity of chloroquine (WEHI 231 cells [3]): 0.23 fold
Activity: -log10 of the concentration (M) required for half maximal inhibition of CpG-ODN effect on [3H] thymidine uptake in the presence of α-sIgM (WEHI 231 cells [3]): 6.32

CCN(CC)CCCC(C)Nc1ccnc2ccc(-c3ccccc3)cc12 (stereo not shown) [compound 51]
Fold: activity expressed as a fraction of activity of chloroquine (WEHI 231 cells [3]): 1.62 fold
Activity: -log10 of the concentration (M) required for half maximal inhibition of CpG-ODN effect on [3H] thymidine uptake in the presence of α-sIgM (WEHI 231 cells [3]): 7.17

CCN(CC)CCCC(Nc1c2ccc(Cl)cc2nc2ccc(OC)cc12)c1ccc(F)cc1 (stereo not shown) [compound 23]
vs. Chloroquine, fold (WEHI 231 cells [3]): 2.57 fold
Activity,-log10 (concentration (M) for half maximal inhibition of CpG-ODN effect on [3H] thymidine uptake in the presence of α-sIgM) (WEHI 231 cells [3]): 7.37

CCN(CC)CCCC(C)Nc1c(C)cnc2c(OC)c(Cl)ccc12 (stereo not shown) [compound 63]
Fold: activity expressed as a fraction of activity of chloroquine (WEHI 231 cells [3]): 0.10 fold
Activity: -log10 of the concentration (M) required for half maximal inhibition of CpG-ODN effect on [3H] thymidine uptake in the presence of α-sIgM (WEHI 231 cells [3]): 5.95

CCN(CC)CCCC(Nc1c2ccc(Cl)cc2nc2ccc(OC)cc12)c1ccc(Cl)cc1 (stereo not shown) [compound 28]
vs. Chloroquine, fold (WEHI 231 cells [3]): 1.82 fold
Activity,-log10 (concentration (M) for half maximal inhibition of CpG-ODN effect on [3H] thymidine uptake in the presence of α-sIgM) (WEHI 231 cells [3]): 7.22

CCN(CC)CCC(CNc1ccnc2cc(Cl)ccc12)c1ccc(OC)cc1 (stereo not shown) [compound 61]
Fold: activity expressed as a fraction of activity of chloroquine (WEHI 231 cells [3]): 0.79 fold
Activity: -log10 of the concentration (M) required for half maximal inhibition of CpG-ODN effect on [3H] thymidine uptake in the presence of α-sIgM (WEHI 231 cells [3]): 6.86

CCN(CC)CCCC(C)Nc1c(C)cnc2cccc(Br)c12 (stereo not shown) [compound 62]
Fold: activity expressed as a fraction of activity of chloroquine (WEHI 231 cells [3]): 0.35 fold
Activity: -log10 of the concentration (M) required for half maximal inhibition of CpG-ODN effect on [3H] thymidine uptake in the presence of α-sIgM (WEHI 231 cells [3]): 6.51

CCN(CC)CCCC(Nc1c2ccc(Cl)cc2nc2ccc(OC)cc12)c1cccc2ccccc12 (stereo not shown) [compound 29]
vs. Chloroquine, fold (WEHI 231 cells [3]): 1.91 fold
Activity,-log10 (concentration (M) for half maximal inhibition of CpG-ODN effect on [3H] thymidine uptake in the presence of α-sIgM) (WEHI 231 cells [3]): 7.24

CN(C)C(C)(C)CCCNc1ccnc2cc(Cl)ccc12 [compound 68]
Fold: activity expressed as a fraction of activity of chloroquine (WEHI 231 cells [3]): 0.81 fold
Activity: -log10 of the concentration (M) required for half maximal inhibition of CpG-ODN effect on [3H] thymidine uptake in the presence of α-sIgM (WEHI 231 cells [3]): 6.87

CCN(CC)CCC(CNc1c(C)cnc2cc(Cl)ccc12)c1ccc(Cl)c(Cl)c1 (stereo not shown) [compound 65]
Fold: activity expressed as a fraction of activity of chloroquine (WEHI 231 cells [3]): 0.58 fold
Activity: -log10 of the concentration (M) required for half maximal inhibition of CpG-ODN effect on [3H] thymidine uptake in the presence of α-sIgM (WEHI 231 cells [3]): 6.72

CCN(CC)CCC(CNc1ccnc2cc(Cl)ccc12)c1ccccc1 (stereo not shown) [compound 7]
Fold: activity expressed as a fraction of activity of chloroquine (WEHI 231 cells [3]): 1.38 fold
Activity: -log10 of the concentration (M) required for half maximal inhibition of CpG-ODN effect on [3H] thymidine uptake in the presence of α-sIgM (WEHI 231 cells [3]): 7.10

B1: IL-6: murine IL-6 purchased from PharMingen (protein, UniProt P08505 25-211, looked up)
Interleukin-6: FPTSQVRRGDFTEDTTPNRPVYTTSQVGGLITHVLWEIVEMRKELCNGNSDCMNNDDALAENNLKLPEIQRNDGCYQTGYNQEICLLKISSGLLEYHSYLEYMKNNLKDNKKDKARVLQRDTETLIHIFNQEVKDLHKIVLPTPISNALLTDKLESQKEWLRTKTIQFILKSLEEFLKVTLRSTRQT
7TD1 cells/μL (7TD1 cells; 10 μg/mL IL-6 alone, five days): 887 cells/μL
